Source: the supplement of paper PMC13380429

Legend:
[1] = system: A549-ACE2 infected with SARS-CoV-2; experiment: morphology score (similarity to uninfected cells); higher = more like uninfected cells; conditions: 24 h
[2] = system: Calu-3; experiment: drug sensitivity score (DSS) for viability; higher = more toxic; extreme values may be limits of the assay; conditions: 72 h
[3] = system: U2OS; experiment: as above; conditions: 72 h
[4] = system: HepG2; experiment: as above; conditions: 72 h
[5] = system: Vero E6; experiment: as above; conditions: 72 h
[6] = system: Caco-2; experiment: as above; conditions: 72 h
[7] = system: A549-ACE2 infected with SARS-CoV-2; experiment: SARS-CoV-2 infection rate relative to DMSO; higher = more infection; conditions: 24 h
[8] = system: Calu-3; experiment: cell viability relative to DMSO; higher = less toxic; conditions: 72 h
[9] = system: U2OS; experiment: as above; conditions: 72 h
[10] = system: HepG2; experiment: as above; conditions: 72 h
[11] = system: Vero E6; experiment: as above; conditions: 72 h
[12] = system: Caco-2; experiment: as above; conditions: 72 h
[13] = system: A549-ACE2; experiment: drug-induced phospholipidosis relative to tamoxifen; higher = more phospholipidosis
[14] = system: Calu-3; experiment: relative viability EC50 (midpoint between 100% and the lowest measured viability); higher = less toxic; conditions: 72 h
[15] = system: U2OS; experiment: as above; conditions: 72 h
[16] = system: HepG2; experiment: as above; conditions: 72 h
[17] = system: Vero E6; experiment: as above; conditions: 72 h
[18] = system: A549-ACE2 infected with SARS-CoV-2; experiment: cell count relative to DMSO; higher = less toxic; conditions: 24 h
[19] = system: A549-ACE2; experiment: phospholipidosis EC50; higher = less potent phospholipidosis inducer; conditions: 24 h

C#C[C@]1(O)CC[C@H]2[C@@H]3CCc4cc(OC5CCCC5)ccc4[C@H]3CC[C@@]21C [quinestrol]
Conditions | SARS-CoV-2 infection rate, [7] [%] | cell count, [18] [%] | cell viability, [8] [%] | cell viability, [9] [%] | cell viability, [10] [%] | cell viability, [11] [%] | cell viability, [12] [%] | morphology score, [1]
1 nM | – | – | 97.9 | 102 | 92.1 | 98.4 | 99.4 | –
10 nM | – | – | 98.6 | 98.9 | 93.2 | 104 | 92.1 | –
100 nM | – | – | 99.8 | 104 | 88.9 | 100 | 98.7 | –
0.3 µM | 103 | 105 | – | – | – | – | – | -0.03
1000 nM | – | – | 91.1 | 100 | 95.5 | 104 | 96.5 | –
3 µM | 85 | 110 | – | – | – | – | – | 0.43
10 µM | 41 | 85 | – | – | – | – | – | 0.68
10000 nM | – | – | 41 | 93.8 | 76.6 | 87.4 | 67.8 | –
30 µM | 42 | 23 | – | – | – | – | – | 0.01

Conditions | drug sensitivity score | relative viability EC50 [µM]
[2] | 4.7 | –
[3] | 0 | –
[4] | 1.3 | –
[5] | 0 | –
[6] | 2 | –
[14] | – | 1.98
[15] | – | > 10
[16] | – | > 10
[17] | – | > 10

drug-induced phospholipidosis [%], [13]
Conditions | 0.3 µM | 0.833333 µM | 3.33333 µM | 6.66667 µM | 10 µM | 30 µM
24 h | 11.1 | 13.7 | 17.2 | 16.9 | 13.9 | 23.3
48 h | 12.2 | 17.8 | 21.2 | 25.8 | 23.6 | 37.6
72 h | 8.56 | 16.2 | 19.1 | 27.3 | 29.2 | –

C[C@@H]1C[C@@H]([C@H](O)CC2CC(=O)NC(=O)C2)C(=O)[C@@H](C)C1 [cycloheximide]
[1]
Conditions | morphology score
0.3 µM | 0.91
3 µM | 0.69
10 µM | 0.52
30 µM | 0.48

Conditions | drug sensitivity score
[2] | 7.3
[3] | 13.8
[4] | 14.3
[5] | 13.8

Cc1c(O)cccc1C(=O)N[C@@H](CSc1ccccc1)[C@H](O)CN1C[C@H]2CCCC[C@H]2C[C@H]1C(=O)NC(C)(C)C [nelfinavir]
Conditions | SARS-CoV-2 infection rate, [7] [%] | cell count, [18] [%] | cell viability, [8] [%] | cell viability, [9] [%] | cell viability, [10] [%] | cell viability, [11] [%] | cell viability, [12] [%] | morphology score, [1]
1 nM | – | – | 101 | 98.2 | 107 | 105 | 104 | –
10 nM | – | – | 87.1 | 92.5 | 96.7 | 99.7 | 93.4 | –
100 nM | – | – | 137 | 96.8 | 89.5 | 88.6 | 95.1 | –
0.3 µM | 95 | 104 | – | – | – | – | – | 0.27
1000 nM | – | – | 109 | 93.5 | 90.2 | 97.3 | 70.1 | –
3 µM | 102 | 96 | – | – | – | – | – | 0.2
10 µM | 69 | 113 | – | – | – | – | – | 0.69
10000 nM | – | – | 86.7 | 86.9 | 76.4 | 93.6 | 78.7 | –
30 µM | 10 | 97 | – | – | – | – | – | 0.42

Conditions | drug sensitivity score | phospholipidosis EC50 [µM] | relative viability EC50 [µM]
[2] | 0 | – | –
[3] | 0 | – | –
[4] | 1.8 | – | –
[5] | 0 | – | –
[6] | 5.8 | – | –
[14] | – | – | > 10
[15] | – | – | > 10
[16] | – | – | > 10
[17] | – | – | > 10
[19] | – | 11.6 | –

drug-induced phospholipidosis [%], [13]
Conditions | 0.3 µM | 0.833333 µM | 3.33333 µM | 6.66667 µM | 10 µM | 30 µM
24 h | 1.63 | 2.14 | 9.03 | 22.8 | 35.3 | 64.7
48 h | 1.06 | -2.76 | 10.6 | 21.3 | 40.6 | –
72 h | 1.29 | -2.99 | 4.63 | 19.4 | 37 | –
